This data set in a line: In vivo pharmacokinetic study, rat IV. Further details: species or system Male Sprague Dawley rats. Here is the method: General Procedures. Concentrations of the test compounds in plasma were determined using a high performance liquid chromatography/tandem mass spectrometry (HPLC/MS/MS) method. The test compounds along with the internal standard (IS) were extracted from plasma (20 μL) by direct protein precipitation with acetonitrile (1:25 ratio of plasma/acetonitrile). After centrifugation, the supernatant extract (10 μL) was injected onto the LC/MS/MS system. The HPLC system included a Phenomenex Luna C8 column, 3 micron, 2 mm diameter×30 mm long eluted with a gradient mobile phase consisting of 0.1% formic acid in water or in acetonitrile. The analytes were detected by MS/MS with Electrospray Ionization (ESI) in the mode of multiple reaction monitoring (MRM). The lower limit of quantitation (LLOQ) was 1.00 ng/mL. The linear range of the assay was from 1 to 3000 ng/mL. The assay accuracy was within 20% of the nominal values.
Plasma concentration-time profiles of the test compounds were analyzed by noncompartmental pharmacokinetic methods using PK module in Watson, Version 7.4.2 (Thermo Scientific). Pharmacokinetic parameters including AUCa11, AUC0-∞, C0, Cl, Vss and t1/2 were determined.
Descriptive statistical data of plasma concentrations and pharmacokinetic parameter estimates were calculated, including the mean, standard deviation (SD), and coefficient of variation (% CV) using Microsoft Excel 2010.
Rat IV Study. Compounds 7 and 10 were administered simultaneously in a single intravenous bolus to Male Sprague Dawley rats (n=3) via jugular cannula. The nominal dose of each compound was 0.5 mg/kg. The cassette dosing solution was formulated in D5W with additives Animals had free access to food and water before and after dosing. Blood samples (approximately 0.25 mL each) were collected via a carotid artery catheter prior to dosing and at 0 (predose), 5 min, 10 min, 0.25, 0.5, 1, 2, 4, 8, 12, 24 hours post dose. Each blood sample was collected into a tube that was kept on wet ice and contained potassium EDTA as the anticoagulant. Plasma was separated and stored at approximately −70° C. until analysis.
Plasma samples and dosing solutions were analyzed using a liquid chromatography/tandem mass spectrometry (LC/MS/MS) method to determine the concentrations of Compounds 7 and 10 with a lower limit of quantitation (LLOQ) of 1.00 ng/mL. The average plasma concentrations of Compounds 7 and 10 are plotted in FIG. 5 and are also presented in tabular form in Table 5.
Plasma concentration vs. time data were subjected to noncompartmental pharmacokinetic (PK) analysis. To determined the measured dose of each compound, the dose formulation (50 μL) was aliquoted into a cluster tube at the time of dosing. Then 450 μL of DMSO was added to the tube to dilute it 10×. Then the diluted dosing solution was spiked into rat blank plasma with 100× dilution. The resulting plasma sample was analyzed along with the plasma samples collected from rats that were dosed with the compounds, using the same LC/MS/MS method.

The mark [1] stands for this setting: male, Sprague Dawley, plasma, rat IV bolus, cassette, nominal 0.5 mg/kg, noncompartmental analysis.

This note sets out measurements from US11358977B2, “Deuterated pyridone amides and prodrugs thereof as modulators of sodium channels” (VERTEX PHARMACEUTICALS INCORPORATED, priority 2017, dated 2022).

The AUC is the area under the concentration-time curve, a measure of exposure. Low readings indicate low exposure, high ones high exposure. Broadly, the AUC(0-inf) is the area under the concentration-time curve extrapolated to infinity. For orientation: clearance means the volume of plasma or blood freed of the substance per unit of time. The low end stands for inefficient removal, the high end for efficient removal. Broadly, the half-life is how long it takes for the measured level to halve. In the case of `[2H]C([2H])([2H])c1cc(F)ccc1Oc1cc(C(F)(F)F)ccc1C(=O)Nc1cc[nH]c(=O)c1` [Compound 7, 2-(4-fluoro-2-(methyl-d3)phenoxy)-N-(2-oxo-1,2-dihydropyridin-4-yl)-4-(trifluoromethyl)benzamide], where the note is “in rats, IV”, the “clearance compared with Compound 10” value is recorded as “lower” and the “t1/2 compared with Compound 10” value is “longer”. This molecule showed a concentration at 0.083 h (male, Sprague Dawley, plasma, rat IV bolus, cassette, nominal 0.5 mg/kg, 0.083 hours) of 420 ng/mL. This molecule also gave a concentration at 0.167 h (male, Sprague Dawley, plasma, rat IV bolus, cassette, nominal 0.5 mg/kg, 0.167 hours) of 399 ng/mL. In addition, the concentration at 0.25 h (male, Sprague Dawley, plasma, rat IV bolus, cassette, nominal 0.5 mg/kg, 0.25 hours) came out at 371 ng/mL. The molecule further gave a concentration at 0.5 h (male, Sprague Dawley, plasma, rat IV bolus, cassette, nominal 0.5 mg/kg, 0.5 hours) of 301 ng/mL. For the setting “male, Sprague Dawley, plasma, rat IV bolus, cassette, nominal 0.5 mg/kg, 1 hour”, the concentration at 1 h was found to be 256 ng/mL. Also, for the setting “male, Sprague Dawley, plasma, rat IV bolus, cassette, nominal 0.5 mg/kg, 2 hours”, the concentration at 2 h amounted to 208 ng/mL. Further, the concentration at 4 h (male, Sprague Dawley, plasma, rat IV bolus, cassette, nominal 0.5 mg/kg, 4 hours) is 154 ng/mL. The concentration at 8 h (male, Sprague Dawley, plasma, rat IV bolus, cassette, nominal 0.5 mg/kg, 8 hours) came to 91.3 ng/mL. The same molecule came in with a concentration at 12 h (male, Sprague Dawley, plasma, rat IV bolus, cassette, nominal 0.5 mg/kg, 12 hours) of 47.6 ng/mL. This molecule also gave a concentration at 24 h (male, Sprague Dawley, plasma, rat IV bolus, cassette, nominal 0.5 mg/kg, 24 hours) of 7.57 ng/mL. Under setting [1], this molecule displayed an AUC of 937 ng·h/mL, an AUC(0-inf) of 961 ng·h/mL, a C0 of 211 ng/mL and a clearance of 8.07 mL/min/kg. Also, under setting [1], the half-life is 4.4 h. Moreover, the Vd (male, Sprague Dawley, plasma, rat IV bolus, cassette, nominal 0.5 mg/kg, noncompartmental analysis, read-out: Vss) was 3 L/kg.
